According to US20020159980A1, “Benomyl tolerant fusarium lateritium and uses thereof” (priority 2001, published 2002):

Assays:
[1] = tested on: E. lata; assay: Grapevine bioassays in the presence of benomyl: E. lata colonization; format: cell-based, Eutypa lata; conditions: 26° C., 10 days; for E. lata colonization: treatment E. lata alone
Description: Bioassays were also completed to evaluate the tolerance of the BR F. lateritium strain and E. lata to benomyl when applied to grapevine segments. Benomyl concentrations tested included 0, 10, 100 and 1000 μg/ml at 50 μl aliquots per segment. Bioassays were inoculated with 20 μl aliquots of broth from 4 to 5 day old shake flask cultures of BR F. lateritium and E. lata. The F. lateritium shake flask cultures yielded approximately 4.5×10^5 cells/ml. Segments were inoculated first with benomyl and then with E. lata and BR F. lateritium. All inoculations were completed within one hour in a laminar flow hood. These bioassays were incubated at 26° C. for 10 days.
After incubation, segments were removed from the water agar, split in half and surface disinfected for ½ hour in a 2.5% sodium hypochlorite solution. The split segments were plated on PDA and monitored for E. lata presence after 5 days. All bioassays were performed in triplicate. Positive and negative controls were performed for each bioassay. Mean percent infection levels and standard errors about the mean were calculated for each treatment.

[2] = tested on: F. lateritium and E. armeniacae; conditions: reported by Carter et al.; cited from earlier work

Compound: CCCCNC(=O)n1c(NC(=O)OC)nc2ccccc21 [benomyl, 1-(butylcarbomyl)-2-benzimidazole carbamate]
- benomyl concentration applied to the segments at which E. lata did not colonize ([1]; grapevine segments): exceeded 100 μg/ml
- E. lata colonization ([1]; benomyl 10 μg/ml): 100%
- E. lata colonization ([1]; benomyl 100 μg/ml): 90%
- E. lata colonization ([1]; benomyl 1000 μg/ml): 0%
- differential sensitivities of F. lateritium and E. armeniacae to benomyl [2]: approximately 10 fold
